Reference: patent US20160030407A1, “Method of Treating Inflammatory Lung Disease” (priority 2010, published 2016)
Several values for one entry are separate records, joined by “and”; a condition that tells them apart may be missing. Equal values may be shown once.

Tests used:
BACE-1 mRNA = BACE-1 mRNA levels in SHSY cells (RTPCR); format: cell-based, human; details: 30 minutes, TNF-α used to increase BACE expression
Source text: TNF-α was used to increase BACE expression.

IL-1β = assay: LPS-induced IL-1β release in whole human blood; format: cell-based
Description: Whole human blood was treated with LPS to stimulate inflammatory responses. […] The inflammatory molecule IL-1β was measured after 16 hours.

[1] = Single i.v. dose toxicity: clinical chemistry; format: in vivo, Sprague-Dawley rats
Source text: On day 15, urine was collected on all surviving animals for urinalysis. The animals were euthanized and bled via cardiac puncture. Blood was collected for hematology, clinical chemistry, and coagulation analysis. Tissues were collected, weighed, and stored in 10% neutral-buffered formalin for possible future analysis.

[2] = Brain extract concentrations after single i.v. bolus; format: in vivo, Sprague-Dawley rats; details: for Concentration in rat brain extract: individual rats
Description: Six rats (3 males and 3 females) were dosed per dose group. […] Plasma and brain homogenates were stored at −80° C. until analysis.
An additional 48 rats (24 males and 24 females) received a single intravenous dose via the tail vein at the same doses as mentioned above. At 30 and 360 minutes post administration, 6 rats (3 males and 3 females) per dose group, per time point were euthanized, bled via cardiac puncture, and perfused, and brains were collected. The brains were homogenized. Blood was spun, and plasma was collected. Plasma and brain homogenate were stored at −80° C.
The animals were weighed prior to dosing and received a single i.v. dose of either test compound at a volume of 5 mL/kg. Blood was collected via the venus plexus (retro-orbital) into tubes containing (K2) EDTA. No more than 0.5 mL was collected per time point. […] The brain was removed, weighed, homogenized in sterile 0.9% saline at a volume equal to its weight, and stored at −80° C.
The amount of the test agent in the supernatant was determined by liquid chromatography tandem mass spectrometry (LC/MS/MS).
Analysis. Samples were analyzed by LC/MS/MS using an Agilent 6410 mass spectrometer coupled with an Agilent 1200 high pressure liquid chromatography (HPLC) and a CTC PAL chilled autosampler, all controlled by MassHunter software (Agilent). After separation on a hydrophilic interaction liquid chromatography (HILIC) HPLC column (Sepax) using an acetonitrile-ammonium acetate/acetic acid gradient system, peaks were analyzed by mass spectrometry (MS) using ESI ionization in multiple reaction monitoring (MRM) mode. MassHunter software was used to calculate the concentration of the test compounds in samples from the peak area using the appropriate calibration curves.

nAChR α4/β2 = target: T1, nAChR α4/β2 (Homo sapiens, UniProt P17787+P43681); assay: nAChR α4/β2 channel agonist assay (FLIPR); format: cell-based; details: 0.3-1000 μM
T1 construct: host or cells: HEK293 cells, transient
T1 sequence (P43681 29-627): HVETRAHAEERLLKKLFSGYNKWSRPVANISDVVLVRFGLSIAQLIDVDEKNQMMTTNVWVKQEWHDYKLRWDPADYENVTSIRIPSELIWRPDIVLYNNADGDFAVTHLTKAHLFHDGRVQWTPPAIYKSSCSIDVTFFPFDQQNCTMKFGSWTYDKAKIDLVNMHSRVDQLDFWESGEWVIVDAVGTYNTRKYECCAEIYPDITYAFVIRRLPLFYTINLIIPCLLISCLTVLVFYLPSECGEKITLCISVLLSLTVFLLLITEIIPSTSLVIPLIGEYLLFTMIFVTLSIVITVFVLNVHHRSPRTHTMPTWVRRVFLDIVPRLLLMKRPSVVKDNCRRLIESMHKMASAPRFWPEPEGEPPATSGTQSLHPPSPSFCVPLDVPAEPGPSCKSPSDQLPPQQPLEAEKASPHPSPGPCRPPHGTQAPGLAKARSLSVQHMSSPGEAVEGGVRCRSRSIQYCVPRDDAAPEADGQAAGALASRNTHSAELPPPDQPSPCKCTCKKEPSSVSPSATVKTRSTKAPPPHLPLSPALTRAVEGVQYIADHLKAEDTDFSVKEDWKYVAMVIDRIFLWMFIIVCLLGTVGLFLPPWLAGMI
T1 sequence (P17787 26-502): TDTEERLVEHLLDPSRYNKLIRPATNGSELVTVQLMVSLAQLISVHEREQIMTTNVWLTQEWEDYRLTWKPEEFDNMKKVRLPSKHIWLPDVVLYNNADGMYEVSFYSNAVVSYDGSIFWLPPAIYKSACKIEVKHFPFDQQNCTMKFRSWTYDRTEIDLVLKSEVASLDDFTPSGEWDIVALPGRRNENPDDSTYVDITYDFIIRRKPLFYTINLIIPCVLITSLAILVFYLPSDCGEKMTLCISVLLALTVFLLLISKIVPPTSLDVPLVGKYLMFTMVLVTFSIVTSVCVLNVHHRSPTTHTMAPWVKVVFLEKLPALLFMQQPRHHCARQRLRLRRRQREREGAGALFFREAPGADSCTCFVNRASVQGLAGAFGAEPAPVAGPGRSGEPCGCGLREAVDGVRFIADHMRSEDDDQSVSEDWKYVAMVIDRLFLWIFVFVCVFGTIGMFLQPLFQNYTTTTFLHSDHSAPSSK
Description: Briefly, cells were incubated with […] dye for 30 min at 37° C.

[3] = 0.1 mg/kg anatabine, nicotine 0.75 mg/kg
[4] = 0.1 mg/kg, gender F, group mean
[5] = 0.1 mg/kg, gender M, group mean
[6] = 0.75 mg/kg, gender F, group mean
[7] = 0.75 mg/kg, gender M, group mean
[8] = Anatabine 0.1 mg/kg single i.v. dose, female rats, individual animals B6-B10
[9] = Anatabine 0.1 mg/kg single i.v. dose, male rats, individual animals B1-B5
[10] = Anatabine 0.1 mg/kg, M, Mean, n 5
[11] = Anatabine 0.75 mg/kg single i.v. dose, female rats, individual animals C6-C10
[12] = Anatabine 0.75 mg/kg single i.v. dose, male rats, individual animals C1-C5
[13] = Anatabine 0.75 mg/kg, F, Mean, n 5

For `C1=CCC(c2cccnc2)NC1` (racemic) [Anatabine, 1,2,3,6-tetrahydro-[2,3′]bipyridinyl], the “BACE-1 mRNA expression” value (BACE-1 mRNA) was “reduced this signal in a concentration-dependent manner”, the “IL-1β production over time” value (IL-1β; whole human blood + LPS (Example 15)) was “rapid and continuous effect on the suppression” and the “accumulation of IL-1β” value (IL-1β; whole human blood + LPS, 16 hours (Example 13)) was “reduced accumulation of IL-1β”. For the same compound, the “IL-1β, area under the dose-response curve” value (IL-1β; whole human blood + LPS, 16 hours (Example 14)) was “reduced accumulation of IL-1β”, the “globulins vs vehicle controls, females” value [1, 3] was “slightly higher” and the “total protein vs vehicle controls, females” value [1, 3] was “somewhat higher”. For the same compound, the AST [1, 4] was 77.00 IU/L, the “DIR BILIRUBIN” value [1, 4] was 0.00 mg/dL and the “TOT BILIRUBIN” value [1, 4] was 0.00 mg/dL. The AST [1, 5] was 96.00 IU/L, the BUN [1, 5] was 18.00 mg/dL and the “DIR BILIRUBIN” value [1, 5] was 0.00 mg/dL. The “TOT BILIRUBIN” value [1, 5] was 0.00 mg/dL, the “TOT PROTEIN” value [1, 5] was 6.10 g/dL and the “DIR BILIRUBIN” value [1, 6] was 0.00 mg/dL. For the same compound, the “TOT BILIRUBIN” value [1, 6] was 0.00 mg/dL, the “DIR BILIRUBIN” value [1, 7] was 0.02 mg/dL and the “TOT BILIRUBIN” value [1, 7] was 0.02 mg/dL. For the same compound, the ALBUMIN [1, 8] was 3.6 g/dL (3×) and 3.5 g/dL and 3.8 g/dL, the “ALK PHOSPHATASE” value [1, 8] was 140 IU/L and 220 IU/L and the ALT [1, 8] was 57 IU/L and 43 IU/L and 47 IU/L and 62 IU/L and 39 IU/L. For the same compound, the AST [1, 8] was 78 IU/L and 69 IU/L and 70 IU/L and 86 IU/L and 82 IU/L, the BUN [1, 8] was 21 mg/dL (2×) and 19 mg/dL (3×) and the CHLORIDE [1, 8] was 99 mEq/L and 97 mEq/L. The CHOLESTEROL [1, 8] was 90 mg/dL and 74 mg/dL and 65 mg/dL and 66 mg/dL and 87 mg/dL, the CREATININE [1, 8] was 0.4 mg/dL (3×) and 0.5 mg/dL (2×) and the “DIR BILIRUBIN” value [1, 8] was 0 mg/dL. For the same compound, the GLOBULIN [1, 8] was 3.1 g/dL (3×) and 3 g/dL, the GLUCOSE [1, 8] was 170 mg/dL and 220 mg/dL and the PHOSPHORUS [1, 8] was 8.5 mg/dL (2×) and 8.2 mg/dL and 7.4 mg/dL and 7.8 mg/dL. For the same compound, the POTASSIUM [1, 8] was 5.4 mEq/L and 6.3 mEq/L and 5.2 mEq/L and 5.5 mEq/L and 6.7 mEq/L, the “TOT BILIRUBIN” value [1, 8] was 0 mg/dL and the “TOT PROTEIN” value [1, 8] was 6.7 g/dL (2×) and 6.3 g/dL and 6.9 g/dL and 6.6 g/dL. The ALBUMIN [1, 9] was 3.4 g/dL (2×) and 3.2 g/dL and 3.1 g/dL (2×), the “ALK PHOSPHATASE” value [1, 9] was 470 IU/L and the ALT [1, 9] was 92 IU/L and 65 IU/L and 74 IU/L and 44 IU/L and 78 IU/L. The AST [1, 9] was 97 IU/L and 99 IU/L and 93 IU/L and 85 IU/L, the BUN [1, 9] was 18 mg/dL (2×) and 21 mg/dL and 14 mg/dL and 19 mg/dL and the CHLORIDE [1, 9] was 98 mEq/L and 97 mEq/L (2×) and 99 mEq/L (2×). The CHOLESTEROL [1, 9] was 65 mg/dL and 64 mg/dL and 75 mg/dL and 56 mg/dL and 76 mg/dL, the CREATININE [1, 9] was 0.4 mg/dL (3×) and 0.3 mg/dL (2×) and the “DIR BILIRUBIN” value [1, 9] was 0 mg/dL. The GLOBULIN [1, 9] was 2.9 g/dL (2×) and 2.6 g/dL and 3.1 g/dL, the GLUCOSE [1, 9] was 210 mg/dL and the POTASSIUM [1, 9] was 5.9 mEq/L and 6.5 mEq/L and 6.6 mEq/L and 6.9 mEq/L and 6.1 mEq/L. The “TOT BILIRUBIN” value [1, 9] was 0 mg/dL, the “TOT PROTEIN” value [1, 9] was 6.3 g/dL (2×) and 5.8 g/dL and 5.9 g/dL and 6.2 g/dL and the CREATININE ([1]; Anatabine 0.1 mg/kg, F, Mean, n 5) was 0.44 mg/dL. For the same compound, the CHLORIDE [1, 10] was 98.00 mEq/L, the CREATININE [1, 10] was 0.36 mg/dL and the POTASSIUM [1, 10] was 6.40 mEq/L. For the same compound, the ALBUMIN [1, 11] was 3.5 g/dL (2×) and 3.6 g/dL (2×) and 3.4 g/dL, the “ALK PHOSPHATASE” value [1, 11] was 130 IU/L and 160 IU/L and the ALT [1, 11] was 63 IU/L and 49 IU/L (2×) and 55 IU/L and 57 IU/L. The AST [1, 11] was 95 IU/L and 69 IU/L and 76 IU/L and 54 IU/L and 72 IU/L, the BUN [1, 11] was 15 mg/dL (3×) and 16 mg/dL (2×) and the CHLORIDE [1, 11] was 97 mEq/L (2×) and 96 mEq/L and 99 mEq/L. For the same compound, the CHOLESTEROL [1, 11] was 66 mg/dL and 64 mg/dL and 63 mg/dL and 69 mg/dL and 87 mg/dL, the CREATININE [1, 11] was 0.5 mg/dL (2×) and 0.4 mg/dL (3×) and the “DIR BILIRUBIN” value [1, 11] was 0 mg/dL. For the same compound, the GLOBULIN [1, 11] was 2.7 g/dL and 3 g/dL (2×), the PHOSPHORUS [1, 11] was 9.7 mg/dL and 7.7 mg/dL and 9.6 mg/dL and 9.2 mg/dL and 7 mg/dL and the POTASSIUM [1, 11] was 5.5 mEq/L and 5.9 mEq/L and 6 mEq/L and 5.7 mEq/L and 6.3 mEq/L. The “TOT BILIRUBIN” value [1, 11] was 0 mg/dL, the “TOT PROTEIN” value [1, 11] was 6.3 g/dL (2×) and 6.2 g/dL and 6.6 g/dL and 6.5 g/dL and the ALBUMIN [1, 12] was 3.4 g/dL (2×) and 3.1 g/dL and 3.2 g/dL and 3.3 g/dL. For the same compound, the ALT [1, 12] was 75 IU/L and 57 IU/L and 65 IU/L and 50 IU/L and 87 IU/L, the AST [1, 12] was 66 IU/L and 97 IU/L and 90 IU/L and 92 IU/L and the BUN [1, 12] was 15 mg/dL and 18 mg/dL and 12 mg/dL and 17 mg/dL and 21 mg/dL. For the same compound, the CHLORIDE [1, 12] was 98 mEq/L and 99 mEq/L (2×) and 100 mEq/L and 97 mEq/L, the CHOLESTEROL [1, 12] was 69 mg/dL (2×) and 60 mg/dL and 54 mg/dL and 62 mg/dL and the CREATININE [1, 12] was 0.4 mg/dL (3×) and 0.3 mg/dL (2×). The “DIR BILIRUBIN” value [1, 12] was 0 mg/dL (4×) and 0.1 mg/dL, the GLOBULIN [1, 12] was 2.6 g/dL and 2.7 g/dL and 2.9 g/dL and the GLUCOSE [1, 12] was 160 mg/dL. For the same compound, the PHOSPHORUS [1, 12] was 11 mg/dL and 10 mg/dL, the POTASSIUM [1, 12] was 6.3 mEq/L (2×) and 5.4 mEq/L and 6 mEq/L and 6.6 mEq/L and the SODIUM [1, 12] was 150 mEq/L. For the same compound, the “TOT BILIRUBIN” value [1, 12] was 0 mg/dL (4×) and 0.1 mg/dL, the “TOT PROTEIN” value [1, 12] was 6.2 g/dL and 5.7 g/dL and 5.9 g/dL and 6.1 g/dL and 6.3 g/dL and the CHLORIDE [1, 13] was 98.00 mEq/L. The CREATININE [1, 13] was 0.44 mg/dL, the CREATININE ([1]; Anatabine 0.75 mg/kg, M, Mean, n 5) was 0.36 mg/dL and the “globulins vs vehicle controls, males” value ([1]; all anatabine dose levels, nicotine 0.75 mg/kg) was “marginally higher”. The “total protein vs vehicle controls, males” value ([1]; all anatabine treatment groups, nicotine 0.75 mg/kg) was “slightly increased”, the “albumin levels vs control” value ([1]; males 0.75 and […], females 0.1 and 0.75 mg/kg anatabine) was “slight increases in albumin levels” and the “Concentration in rat brain extract” value ([2]; Anatabine 0.1 mg/kg dose group, time point 0.5 hr) was “<LLQ”. For the same compound, the “Concentration in rat brain extract” value ([2]; Anatabine 0.1 mg/kg dose group, time point 6 hr) was “<LLQ”, the “Concentration in rat brain extract” value ([2]; Anatabine 0.1 mg/kg dose group, time point 24 hr) was “<LLQ” and the “Concentration in rat brain extract” value ([2]; Anatabine 0.75 mg/kg dose group, time point 24 hr) was “<LLQ”. For the same compound, the “Concentration in rat brain extract” value ([2]; Anatabine 1.0 mg/kg dose group, time point 6 hr) was “<LLQ”, the “Concentration in rat brain extract” value ([2]; Anatabine 1.0 mg/kg dose group, time point 24 hr) was “<LLQ” and the “Avg. Conc. (Combined Male and Female)” value ([2]; Rat Brain, Anatabine 0.75 mg/kg, combined, 24 hr) was “<LLQ”. For the same compound, the “Avg. Conc. (Male or Female)” value ([2]; Rat Brain, Anatabine 0.75 mg/kg, female, 24 hr) was “<LLQ”, the “Avg. Conc. (Male or Female)” value ([2]; Rat Brain, Anatabine 0.75 mg/kg, male, 24 hr) was “<LLQ” and the “Avg. Conc. (Male or Female)” value ([2]; Rat Brain, Anatabine 1.0 mg/kg, female, 24 hr) was “<LLQ”. For the same compound, the “appearance in brain tissue” value ([2]; rat, following i.v. administration) was “rapidly appear in brain tissue”, the “Mean concentration in rat brain extracts” value ([2]; single i.v. 0.75 mg/kg, female, 24 hr) was “<LLQ” and the “Mean concentration in rat brain extracts” value ([2]; single i.v. 0.75 mg/kg, male, 24 hr) was “<LLQ”. For the same compound, the “Mean concentration in rat brain extracts” value ([2]; single i.v. 1.0 mg/kg, female, 24 hr) was “<LLQ” and the agonist activity (nAChR α4/β2) was “full agonist activity”.
